Where two headings read alike, the source gives them in different places.
Tested on: PC-3-KQ cells
Assay: 3D spheroid invasion assay and screening of FDA-approved drugs
Format: cell-based, human
Details: compared to vehicle control; for activity at 0.01 µM / activity at 0.1 µM / activity at 1 µM / activity at 10 µM: Homo sapiens, 72 h, read-out: Invasion rates (%) of each drug’s multiple concentrations
Protocol: The invasion assay was performed as previously described. […] The plates were then centrifuged at 320 g for 4 min to cluster cells in the bottom of wells and incubated for 3 days. On the fourth day, 40 μL medium was removed from each well, 40 μL of the matrigel-medium mixture was added to each well, and cells were cultured for another 3 days. […] At the end of the incubation, images were taken using a phase contrast microscope (Eclipse Ti2, Nikon, Tokyo, Japan) with 10× object lenses, and the total area of cells and the core sphere area of cells (Fig. 1a) were measured using the Image J software. The invading area was calculated using the following formula: invasion area = total area of cells – core sphere area.
For drug screening, drugs were added to the matrigel-medium mixture when replacing the culture medium on day 4. For the initial round of screening, a final concentration of 10 μM was used for all drugs. Multiple drug concentrations were used for the second round of screening, including 0, 0.001, 0.01, 0.1, 1, and 10 μM. Duplicate wells were repeated for each concentration.

[1] = 0.01 μM (first column so headed), secondary screening of 87 hit compounds (Table S1)
[2] = 0.01 μM (first column so headed), third screening of 25 hit compounds (Table S2)
[3] = 0.01 μM (second column so headed), secondary screening of 87 hit compounds (Table S1)
[4] = 0.01 μM (second column so headed), third screening of 25 hit compounds (Table S2)
[5] = 0.1 μM, secondary screening of 87 hit compounds (Table S1)
[6] = 0.1 μM, third screening of 25 hit compounds (Table S2)
[7] = 1 μM, secondary screening of 87 hit compounds (Table S1)
[8] = 1 μM, third screening of 25 hit compounds (Table S2)
[9] = 10 μM, secondary screening of 87 hit compounds (Table S1)
[10] = 10 μM, third screening of 25 hit compounds (Table S2)

SMILES: Cc1nc(Nc2ncc(C(=O)Nc3c(C)cccc3Cl)s2)cc(N2CCN(CCO)CC2)n1.Cl [Dasatinib (hydrochloride)]
- Invasion rates (%) of each drug’s multiple concentrations (μM) [1]: 54.32%
- Invasion rates (%) of each drug’s multiple concentrations (μM) [2]: 99.47%
- Invasion rates (%) of each drug’s multiple concentrations (μM) [3]: 60.68%
- Invasion rates (%) of each drug’s multiple concentrations (μM) [4]: 101.09%
- Invasion rates (%) of each drug’s multiple concentrations (μM) [5]: 53.75%
- Invasion rates (%) of each drug’s multiple concentrations (μM) [6]: 92.00%
- Invasion rates (%) of each drug’s multiple concentrations (μM) [7]: 49.82%
- Invasion rates (%) of each drug’s multiple concentrations (μM) [8]: 87.73%
- Invasion rates (%) of each drug’s multiple concentrations (μM) [9]: 38.63%
- Invasion rates (%) of each drug’s multiple concentrations (μM) [10]: 56.83%

SMILES: Cc1nc(Nc2ncc(C(=O)Nc3c(C)cccc3Cl)s2)cc(N2CCN(CCO)CC2)n1 [Dasatinib]
- activity at 0.01 µM [1]: 46.2%
- activity at 0.01 µM [2]: 95.1%
- activity at 0.01 µM [3]: 49.7%
- activity at 0.01 µM [4]: 97.7%
- activity at 0.1 µM [5]: 37.7%
- activity at 0.1 µM [6]: 83.4%
- activity at 1 µM [7]: 37.1%
- activity at 1 µM [8]: 71.7%
- activity at 10 µM [9]: 15.1%
- activity at 10 µM [10]: 0.9%

SMILES: COc1cccc2c1C(=O)c1c(O)c3c(c(O)c1C2=O)C[C@@](O)(C(C)=O)C[C@@H]3O[C@H]1C[C@H](N)[C@H](O)[C@H](C)O1.Cl [Daunorubicin (Hydrochloride)]
- Invasion rates (%) of each drug’s multiple concentrations (μM) [1]: 95.45%
- Invasion rates (%) of each drug’s multiple concentrations (μM) [3]: 98.71%
- Invasion rates (%) of each drug’s multiple concentrations (μM) [5]: 93.45%
- Invasion rates (%) of each drug’s multiple concentrations (μM) [7]: 64.89%
- Invasion rates (%) of each drug’s multiple concentrations (μM) [9]: 2.25%

SMILES: CNC[C@H](O)[C@@H](O)[C@H](O)[C@H](O)CO.Nc1nc(-n2cc(C(=O)O)c(=O)c3cc(F)c(N4CC(O)C4)c(Cl)c32)c(F)cc1F [Delafloxacin (meglumine)]
- Invasion rates (%) of each drug’s multiple concentrations (μM) [1]: 85.63%
- Invasion rates (%) of each drug’s multiple concentrations (μM) [2]: 93.02%
- Invasion rates (%) of each drug’s multiple concentrations (μM) [3]: 84.75%
- Invasion rates (%) of each drug’s multiple concentrations (μM) [4]: 86.37%
- Invasion rates (%) of each drug’s multiple concentrations (μM) [5]: 73.78%
- Invasion rates (%) of each drug’s multiple concentrations (μM) [6]: 82.73%
- Invasion rates (%) of each drug’s multiple concentrations (μM) [7]: 2.08%
- Invasion rates (%) of each drug’s multiple concentrations (μM) [8]: 1.96%
- Invasion rates (%) of each drug’s multiple concentrations (μM) [9]: 1.54%
- Invasion rates (%) of each drug’s multiple concentrations (μM) [10]: 0.81%

SMILES: CN(C)[C@@H]1C(=O)C(C(N)=O)=C(O)[C@@]2(O)C(=O)C3=C(O)c4c(O)ccc(Cl)c4[C@@H](O)[C@H]3C[C@@H]12.Cl [Demeclocycline (hydrochloride)]
- Invasion rates (%) of each drug’s multiple concentrations (μM) [1]: 92.92%
- Invasion rates (%) of each drug’s multiple concentrations (μM) [2]: 93.85%
- Invasion rates (%) of each drug’s multiple concentrations (μM) [3]: 97.24%
- Invasion rates (%) of each drug’s multiple concentrations (μM) [4]: 95.74%
- Invasion rates (%) of each drug’s multiple concentrations (μM) [5]: 81.08%
- Invasion rates (%) of each drug’s multiple concentrations (μM) [6]: 89.49%
- Invasion rates (%) of each drug’s multiple concentrations (μM) [7]: 41.75%
- Invasion rates (%) of each drug’s multiple concentrations (μM) [8]: 2.65%
- Invasion rates (%) of each drug’s multiple concentrations (μM) [9]: 4.21%
- Invasion rates (%) of each drug’s multiple concentrations (μM) [10]: 0.30%

SMILES: Cc1ncc([N+](=O)[O-])n1C[C@@H](CN1CCOCC1)OP(=O)(O)O [Dextrorotation nimorazole phosphate ester]
- Invasion rates (%) of each drug’s multiple concentrations (μM) [1]: 97.64%
- Invasion rates (%) of each drug’s multiple concentrations (μM) [3]: 99.79%
- Invasion rates (%) of each drug’s multiple concentrations (μM) [5]: 97.40%
- Invasion rates (%) of each drug’s multiple concentrations (μM) [7]: 85.31%
- Invasion rates (%) of each drug’s multiple concentrations (μM) [9]: 35.28%

SMILES: Cc1ncc([N+](=O)[O-])n1C [Dimetridazole]
- activity at 0.01 µM [1]: 95.7%
- activity at 0.01 µM [3]: 97.8%
- activity at 0.1 µM [5]: 88.8%
- activity at 1 µM [7]: 71%
- activity at 10 µM [9]: 3.61%

SMILES: CCCCCCCCCCCC[N+](C)(C)CCOc1ccccc1.[Br-] [Domiphen (bromide)]
- Invasion rates (%) of each drug’s multiple concentrations (μM) [1]: 89.87%
- Invasion rates (%) of each drug’s multiple concentrations (μM) [3]: 94.08%
- Invasion rates (%) of each drug’s multiple concentrations (μM) [5]: 85.67%
- Invasion rates (%) of each drug’s multiple concentrations (μM) [7]: 77.63%
- Invasion rates (%) of each drug’s multiple concentrations (μM) [9]: 66.00%

SMILES: COc1cccc2c1C(=O)c1c(O)c3c(c(O)c1C2=O)C[C@@](O)(C(=O)CO)C[C@@H]3O[C@H]1C[C@H](N)[C@H](O)[C@H](C)O1.Cl [Doxorubicin (hydrochloride)]
- Invasion rates (%) of each drug’s multiple concentrations (μM) [1]: 93.34%
- Invasion rates (%) of each drug’s multiple concentrations (μM) [3]: 92.49%
- Invasion rates (%) of each drug’s multiple concentrations (μM) [5]: 89.01%
- Invasion rates (%) of each drug’s multiple concentrations (μM) [9]: 1.92%

SMILES: C[C@H]1c2cccc(O)c2C(O)=C2C(=O)[C@]3(O)C(O)=C(C(N)=O)C(=O)[C@@H](N(C)C)[C@@H]3[C@@H](O)[C@@H]21 [Doxycycline (hyclate)]
- Invasion rates (%) of each drug’s multiple concentrations (μM) [1]: 91.64%
- Invasion rates (%) of each drug’s multiple concentrations (μM) [2]: 101.94%
- Invasion rates (%) of each drug’s multiple concentrations (μM) [3]: 100.52%
- Invasion rates (%) of each drug’s multiple concentrations (μM) [4]: 98.24%
- Invasion rates (%) of each drug’s multiple concentrations (μM) [5]: 74.92%
- Invasion rates (%) of each drug’s multiple concentrations (μM) [6]: 93.64%
- Invasion rates (%) of each drug’s multiple concentrations (μM) [7]: 3.13%
- Invasion rates (%) of each drug’s multiple concentrations (μM) [8]: 5.76%
- Invasion rates (%) of each drug’s multiple concentrations (μM) [9]: 1.59%
- Invasion rates (%) of each drug’s multiple concentrations (μM) [10]: 1.58%

SMILES: COc1cccc2c1C(=O)c1c(O)c3c(c(O)c1C2=O)C[C@@](O)(C(=O)CO)C[C@@H]3O[C@H]1C[C@H](N)[C@@H](O)[C@H](C)O1.Cl [Epirubicin (hydrochloride)]
- Invasion rates (%) of each drug’s multiple concentrations (μM) [1]: 94.42%
- Invasion rates (%) of each drug’s multiple concentrations (μM) [3]: 95.60%
- Invasion rates (%) of each drug’s multiple concentrations (μM) [5]: 93.22%
- Invasion rates (%) of each drug’s multiple concentrations (μM) [7]: 88.57%
- Invasion rates (%) of each drug’s multiple concentrations (μM) [9]: 4.65%

SMILES: CCc1c(Cl)c(O)c(Cl)c(O)c1C(=O)O[C@H]1[C@H](O)[C@H](OC)[C@H](OC/C2=C\C=C\C[C@H](O)/C(C)=C/[C@H](CC)[C@@H](O[C@@H]3OC(C)(C)[C@@H](OC(=O)C(C)C)[C@H](O)[C@@H]3O)/C(C)=C/C(C)=C/C[C@@H]([C@@H](C)O)OC2=O)O[C@@H]1C [Fidaxomicin]
- activity at 0.01 µM [1]: 100%
- activity at 0.01 µM [3]: 103%
- activity at 0.1 µM [5]: 99.5%
- activity at 1 µM [7]: 96%
- activity at 10 µM [9]: 41.5%

SMILES: CC(=O)O[C@H]1C[C@@]2(C)[C@@H](C[C@@H](O)[C@H]3[C@@]4(C)CC[C@@H](O)[C@@H](C)[C@@H]4CC[C@@]32C)/C1=C(\CCC=C(C)C)C(=O)[O-].[Na+] [Fusidic acid (sodium salt)]
- Invasion rates (%) of each drug’s multiple concentrations (μM) [1]: 92.69%
- Invasion rates (%) of each drug’s multiple concentrations (μM) [3]: 89.70%
- Invasion rates (%) of each drug’s multiple concentrations (μM) [5]: 87.85%
- Invasion rates (%) of each drug’s multiple concentrations (μM) [7]: 68.14%
- Invasion rates (%) of each drug’s multiple concentrations (μM) [9]: 0.70%

SMILES: COc1ccc2c3c1O[C@H]1C[C@@H](O)C=C[C@@]31CCN(C)C2 [Galanthamine]
- activity at 0.01 µM [1]: 86.8%
- activity at 0.1 µM [5]: 88.4%
- activity at 1 µM [7]: 83.3%
- activity at 10 µM [9]: 15.1%

SMILES: CS(=O)(=O)O.C[C@H]1NCc2cc(-c3ccc4c(=O)c(C(=O)O)cn(C5CC5)c4c3OC(F)F)ccc21.O [Garenoxacin (Mesylate hydrate)]
- Invasion rates (%) of each drug’s multiple concentrations (μM) [1]: 89.65%
- Invasion rates (%) of each drug’s multiple concentrations (μM) [3]: 95.96%
- Invasion rates (%) of each drug’s multiple concentrations (μM) [5]: 85.98%
- Invasion rates (%) of each drug’s multiple concentrations (μM) [7]: 96.56%
- Invasion rates (%) of each drug’s multiple concentrations (μM) [9]: 48.76%

SMILES: COc1cc2ncnc(Nc3ccc(F)c(Cl)c3)c2cc1OCCCN1CCOCC1 [Gefitinib]
- activity at 0.01 µM [1]: 86.8%
- activity at 0.01 µM [3]: 85.3%
- activity at 0.1 µM [5]: 77.8%
- activity at 1 µM [7]: 60.2%
- activity at 10 µM [9]: 27.4%

Reference: PMC9945734 (BMC Medicine, 2023)
